Counter-ions that a name gives are not always drawn.
Test system: patients suffering from Chronic non-cancer pain (CNCP)
Experiment: Human clinical trial, pain scored by visual analogue scale (VAS)
Assay type: in vivo
Details: mean ± SD, scale 0-100 mm
Text: The present inventions disclosed in this specification further include a method of treating pain and pain related conditions. This was established using a well controlled human clinical trial. The method of treating pain and pain related conditions by using a combination disclosed by this invention has been established in a long-term controlled clinical evaluation. A typical study determined the efficacy of tramadol and meloxicam as monotherapy and a combination of meloxicam and a slow release tramadol for the treatment of pain and pain related conditions
• Tramadol hydrochloride: Generic Tramadol Hydrochloride tablets 50 mg, • Meloxicam: Generic Meloxicam tablets 7.5 mg • Slow Release Tramadol Hydrochloride: a) Example 1, b) Ultram ER 100 mg
The administered dosage comprised either tramadol hydrochloride (100 mg) or meloxicam 7.5 mg or a combination of meloxicam (7.5 mg) and slow release tramadol hydrochloride (100 mg) selected from Treatments D or E or a combination of meloxicam 5 mg and a slow release tramadol 100 mg (Treatment F) was administered once a day to the patients in a long-term clinical trial.
140 patients were used in a clinical trial were suffering from Chronic non-cancer pain (CNCP), defined as pain for longer than 6 months, including neuropathic pain, osteoarthritis, rheumatoid arthritis, fibromyalgia, and back and musculoskeletal pain were included in the clinical trial.
Those patients with migraines, dental pain, abdominal pains (from chronic pancreatitis, kidney stones, etc.) and ischemic pain from vascular disease were excluded because they are usually not classified as CNCP. Patients with history of addiction (alcohol or drugs) were excluded from the trials
Randomization was performed with computer-generated random numbers in blocks of 10. Randomization codes of the monotherapy or combination therapy treatments were placed in sequentially numbered, opaque, sealed envelopes in the biopsy center. When a patient was recruited and consented, the next numbered envelope was opened by the operator, who had no knowledge of the randomization code before the treatment
Pain was assessed using a visual analogue scale (VAS) graded from 0-100 mm. Pain scoring was performed every three hours after drug administration for a total of 24 hours.
The patients were taught with a standard method by the physician how to use a VAS scoring from 0 to 100 mm to grade the intensity of pain experienced during the treatment. On that scale, the left endpoint, 0, was defined as no pain and the right endpoint 100, as the worst pain the patient could imagine. There were no further marks on the line. The intensity of pain was indicated by the distance in millimeters from the left end. Patients were asked to grade the pain intensity immediately after the administration of drugs and every three hour after for 24 hours by drawing a vertical line over each VAS line. The doctors who prescribed the medicines obtained all the VAS forms for that specific patient.
Data are expressed as means ±SD. Differences in VAS were analyzed with use of the unpaired Student t test and differences in pain score reductions between the two groups were analyzed with use of the Mann-Whitney U test for the median difference. Similar statistical tests were used for between group comparisons of other outcome variables as appropriate. A two tailed P value of less than. […] SAS software was used for the statistical analysis.
We considered that a clinically significant benefit of using meloxicam and slow release tramadol would be a reduction in the pain score (VAS) of at least 15% compared to the monotherapy with either tramadol hydrochloride or naproxen or meloxicam or placebo. Alternatively, the dose reduction of at least 15% of either NSAID or tramadol when used as combination over the monotherapy as significant benefit

Row | Compound | Pain scored by VAS (VAS time 0 hours) | Pain scored by VAS (VAS time 3 hours) | Pain scored by VAS (VAS time 6 hours) | Pain scored by VAS (VAS time 9 hours) | Pain scored by VAS (VAS time 12 hours) | Pain scored by VAS (VAS time 15 hours) | Pain scored by VAS (VAS time 18 hours) | Pain scored by VAS (VAS time 21 hours) | Pain scored by VAS (VAS time 24 hours)
1 | COc1cccc([C@@]2(O)CCCC[C@@H]2CN(C)C)c1 (racemic) [Treatment A, (±) cis-2-[(dimethylamino)methyl]-1-(3-methoxyphenyl)cyclo-hexanol hydrochloride] | 30.3 ± 21.2 mm | 22.3 ± 20.1 mm | 18.3 ± 20.6 mm | 15.3 ± 17.2 mm | 12.3 ± 21.2 mm | 14.3 ± 19.2 mm | 15.3 ± 21.3 mm | 14.3 ± 19.2 mm | 14.3 ± 19.2 mm
2 | Cc1cnc(N/C(O)=C2/C(=O)c3ccccc3S(=O)(=O)N2C)s1 [Treatment B, 4-hydroxy-2-methyl-N-(5-methyl-2-thiazolyl)-2H-1,2-benzothiazine-3-carboxamide-1,1-dioxide] | 34 ± 19.1 mm | 18 ± 19.1 mm | 14 ± 21.1 mm | 14 ± 20.3 mm | 15 ± 18.6 mm | 17 ± 21.5 mm | 19 ± 19.7 mm | 20 ± 18.3 mm | 25 ± 20.9 mm

— patent US20080026054A1, “Novel anelgesic combination” (NECTID INC., priority 2007, published 2008)
